Measurements published in paper PMC9295122, “Sialic Acid Derivatives Inhibit SiaT Transporters and Delay Bacterial Growth” (ACS Chemical Biology, 2022).
Where two headings read alike, the source gives them in different places.

Assays:
[1] = target: T1, PmSiaT (Proteus mirabilis, UniProt B4EZY7); test: nanoDSF thermal shift assay, PmSiaT; assay type: binding; details: for Average 1 / Average 2 / Average 3 / Replicate 1 / Replicate 2 / Replicate 3: PmSiaT Tm; for Average 1: average of experiment 1; for Average 2: average of experiment 2; for Average 3: average of experiment 3; for Replicate 1: experiment 1, second capillary; for Replicate 1 / Replicate 2 / Replicate 3 / Tm 1 / Tm2 / Tm 3 / Tm average overall / ΔTm at 1250 µM: 1.25 mM; for Replicate 2: experiment 2, second capillary; for Replicate 3: experiment 3, second capillary; for Tm 1: experiment 1, first capillary; for Tm2: experiment 2, first capillary; for Tm 3: experiment 3, first capillary; for Tm average overall / ΔTm at 1250 µM: three experiments; for ΔTm at 1250 µM: vs Neu5Ac, read-out: ΔTm average overall
T1 construct: made in house
T1 sequence (B4EZY7 1-496): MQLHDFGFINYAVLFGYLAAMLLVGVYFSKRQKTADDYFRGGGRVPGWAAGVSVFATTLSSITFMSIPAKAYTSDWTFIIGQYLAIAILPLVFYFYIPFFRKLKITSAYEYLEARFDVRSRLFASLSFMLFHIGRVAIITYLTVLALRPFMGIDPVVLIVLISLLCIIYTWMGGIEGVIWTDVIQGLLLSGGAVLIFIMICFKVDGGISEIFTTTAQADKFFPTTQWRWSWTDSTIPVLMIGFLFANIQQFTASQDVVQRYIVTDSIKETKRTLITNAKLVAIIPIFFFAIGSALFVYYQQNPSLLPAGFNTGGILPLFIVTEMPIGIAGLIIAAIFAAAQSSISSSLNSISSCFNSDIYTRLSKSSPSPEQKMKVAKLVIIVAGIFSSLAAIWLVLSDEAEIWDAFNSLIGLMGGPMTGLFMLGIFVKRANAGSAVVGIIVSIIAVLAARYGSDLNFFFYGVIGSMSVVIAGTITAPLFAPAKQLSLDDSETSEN
In short: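 Protein at 2 μM in PBS with 0.0174% (w/v) DDM and ligand at 1.25 mM were heated from 25 to 95 °C at 1 °C/min, with 330/350 nm fluorescence ratio and its first derivative giving Tm. ΔTm is relative to the Neu5Ac Tm, averaged over 3 experiments with 2 capillaries each.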

[2] = LogD pH 7.4 shake flask; assay type: physicochemical; details: 1-octanol / phosphate buffer pH 7.4
Experimental: Distribution coefficients between 1-octanol and phosphate buffer pH 7.4 were determined with a shake flask method with the LC–UV detection of the compound concentration in both phases. The reported range was from −1 to +4.

[3] = Metabolic stability in mouse liver microsomes; assay type: in vitro ADME; details: for Metabolic stability in mouse microsomes, Exp. 1 / Metabolic stability in mouse microsomes, Exp. 2: intrinsic clearance, 1 µM compound; for microsomal CLint at 1 µM: mouse liver microsomes, read-out: intrinsic clearance Clint
Experimental: (§1) The assay was run in a 96-deep well format and solutions were prepared containing microsomes in phosphate buffer. The microsomes employed were from humans, rats, and mice. The reaction was initiated by addition of NADPH after preincubation at 37 °C with test compounds. The reaction was stopped by the addition of acetonitrile (ACN) at six time points (0, 5, 10, 15, 25, and 45 min), the samples were centrifuged, and the supernatant was diluted to determine the loss of compound by LC–MS/MS. Two incubations per compound per species. For further details regarding working concentrations, volumes, and final concentrations at incubation, refer to the supplementary section (Table S6). […]
Conc. of W orki ng Vol ume i n Fi nal conc. At
sol uti on assay incubation
577 m g / m L520 µ L0. 5 m g / m L […]
NADPH i n buffe r 7. 5 m M 80 µ L 1 m M

[4] = Plasma stability, mini pig; assay type: in vitro ADME; details: 1 μM, 37 °C
Experimental: (§2) The reaction was started by the addition of the compound to blank plasma in LC vials after preincubation at 37 °C. The initial compound concentration was 1 μM. The reaction was stopped by the addition of ACN at seven time points (0, 0.5, 1, 2, 4, 6, and 23 h). Time point 0 h was about 15–20 s after spiking the plasma with the compound. The samples were centrifuged and the supernatant diluted and analyzed by LC–MS/MS to determine the % of compound remaining relative to the initial concentration of compound.

[5] = Plasma-protein binding by RED, mouse; assay type: in vitro ADME; details: pH 7.2, read-out: Plasma-protein binding by RED (% unbound compound, average n=2)
Experimental: The assay was run in a deep well plate containing RED inserts with semipermeable dialysis membranes. The reaction was started by adding the compounds to a blank plasma in a 5 μM concentration. Opposite to the blank plasma was a compartment containing isotonic sodium–phosphate buffer (pH 7.2) separated from the plasma by the membrane. The plate was equilibrated in a water bath at 37 °C for 4 h. Samples from both the plasma and the buffer side were matrix compensated before protein precipitation. The samples were centrifuged, and the supernatants were diluted and analyzed by LC–MS/MS to determine the % unbound compound. Two incubations per compound per species.

[6] = Solubility screen; assay type: physicochemical; details: aqueous buffer, kinetic from dmso stock; 100 mM phosphate buffer, pH 7.4, 1% DMSO; read-out: solubility (solubility screening)
Experimental: The compounds were dissolved in 10 mM DMSO solutions. The solubility was assessed by dilution in 0.1 M phosphate buffer pH 7.4 to a concentration of 100 μM.

[7] = Plasma stability, human; assay type: in vitro ADME; details: 1 μM, 37 °C
Experimental: as §2

[8] = Metabolic stability in rat liver microsomes; assay type: in vitro ADME; details: for Metabolic stability in rat microsomes, Exp. 1 / Metabolic stability in rat microsomes, Exp. 2: intrinsic clearance, 1 µM compound; for microsomal CLint at 1 µM: rat liver microsomes, read-out: intrinsic clearance Clint
Experimental: as §1
Metabolic Metabolic Metabolic stability in stability in stability in Plasma-protein human mouse rat In vitro plasma stability binding by RED
Assay/compo microsome microsome microsome (% compound remaining after (% unbound und s s s 23 h) compound, (µL/min/m (µL/min/m (µL/min/m average n=2) g protein) g protein) g protein)
Exp. Exp. Exp. Exp. Exp. Exp. Hum Mou Ra Do Mini Hum Mou Ra […]
Conc. of W orki ng Vol ume i n Fi nal conc. At sol uti on assay incubation
577 m g / m L520 µ L0. […]

[9] = PmSiaT, experiment 1, vs Neu5Ac, read-out: ΔTm 1
[10] = PmSiaT, experiment 2, vs Neu5Ac, read-out: ΔTm 2
[11] = PmSiaT, experiment 3, vs Neu5Ac, read-out: ΔTm 3
[12] = nanoDSF, relative to Neu5Ac, ligand 1.25 mM, <−2.0 °C nonbinder, read-out: PmSiaT ΔTm

SMILES	Average 1 [1] [°C]	Average 2 [1] [°C]	Average 3 [1] [°C]	Replicate 1 [1] [°C]	Replicate 2 [1] [°C]	Replicate 3 [1] [°C]	Tm 1 ([1]; PmSiaT) [°C]	ΔTm [1, 9] [°C]	Tm2 ([1]; PmSiaT) [°C]	ΔTm [1, 10] [°C]	Tm 3 ([1]; PmSiaT) [°C]	Tm average overall ([1]; PmSiaT) [°C]	ΔTm at 1250 µM ([1]; PmSiaT) [°C]	ΔTm [1, 12] [°C]	logD [2]	Metabolic stability in mouse microsomes, Exp. 1 [3] [µL/min/mg protein]	Metabolic stability in mouse microsomes, Exp. 2 [3] [µL/min/mg protein]	microsomal CLint at 1 µM [3] [µL/min/mg]	In vitro plasma stability (% compound remaining after 23 h) [4] [%]	fraction unbound at 4 h, 5 μM [5]	also measured
CC(=O)N[C@H]1[C@H]([C@H](O)[C@H](O)CO)OC(O)(C(=O)O)C[C@@H]1O (some centres unmarked) [Neu5Ac, 5-N-acetyl neuraminic acid, reference compound]	49.0	49.2	49.3	48.8	49.2	49.3	49.2	0	49.1	0	49.3	49.1	0	0							ΔTm [1, 11]: 0 °C
CC(=O)NC1C(OCc2cc(F)cc(F)c2)CC(O)(C(=O)O)OC1C(O)C(O)CO (centres unmarked) [Compound 3e]	56.7	55.2	56.1	56.8	55.2	56.1	56.7	7.7	55.2	6	56.0	56.0	6.8	6.8 ± 0.9	< -0.5	< 10	< 10	< 10	100	0.63	ΔTm [1, 11]: 6.8 °C; solubility [6]: > 95 µM; In vitro plasma stability (% compound remaining after 23 h) [7]: 100%; Metabolic stability in rat microsomes, Exp. 1 [8]: < 10 µL/min/mg protein; Metabolic stability in rat microsomes, Exp. 2 [8]: < 10 µL/min/mg protein; microsomal CLint at 1 µM [8]: < 10 µL/min/mg
CC(=O)NC1C(OCc2cc(Br)cc(Br)c2)CC(O)(C(=O)O)OC1C(O)C(O)CO (centres unmarked) [Compound 3f]		62.8	63.7	64.2	63.0	63.6	63.9	15	62.6	13.6	63.8	63.5		14.3	< 0	< 10	< 10	< 10	39	0.23	solubility [6]: > 95 µM; In vitro plasma stability (% compound remaining after 23 h) [7]: 91%; Metabolic stability in rat microsomes, Exp. 1 [8]: < 10 µL/min/mg protein; Metabolic stability in rat microsomes, Exp. 2 [8]: < 10 µL/min/mg protein; microsomal CLint at 1 µM [8]: < 10 µL/min/mg
CC(=O)NC1C(OCc2ccccc2)CC(O)(C(=O)O)OC1C(O)C(O)CO (centres unmarked) [Compound 3a]	54.6	53.8	54.1	54.6	53.9	54.2	54.5	5.6	53.7	4.6	54.0	54.2	5	4.8 ± 0.5	< -0.5	< 10	< 10	< 10	100	0.63	solubility [6]: > 95 µM; In vitro plasma stability (% compound remaining after 23 h) [7]: 100%; Metabolic stability in rat microsomes, Exp. 1 [8]: < 10 µL/min/mg protein; Metabolic stability in rat microsomes, Exp. 2 [8]: < 10 µL/min/mg protein; microsomal CLint at 1 µM [8]: < 10 µL/min/mg
